Test results as given in patent US20100105689A1, “NOVEL 1,4- AND 1,5-DIARYLSUBSTITUTED 1,2,3-TRIAZOLES USEFUL AS POTASSIUM CHANNEL MODULATORS” (priority 2007, published 2010).

Legend:
[1] = molecular target: T1, BK channels heterologously expressed in Xenopus laevis oocytes (Homo sapiens, UniProt Q12791); assay: BK channel opening activity, two-electrode voltage clamp in oocytes; type: cell-based; conditions: Compound at 30 μM, step from −40 mV to +30 mV, added after a stable current level was reached, FIG. 1
T1 construct: expressed in transfected cells; host or cells: Xenopus laevis oocytes
T1 sequence (Q12791 whole entry): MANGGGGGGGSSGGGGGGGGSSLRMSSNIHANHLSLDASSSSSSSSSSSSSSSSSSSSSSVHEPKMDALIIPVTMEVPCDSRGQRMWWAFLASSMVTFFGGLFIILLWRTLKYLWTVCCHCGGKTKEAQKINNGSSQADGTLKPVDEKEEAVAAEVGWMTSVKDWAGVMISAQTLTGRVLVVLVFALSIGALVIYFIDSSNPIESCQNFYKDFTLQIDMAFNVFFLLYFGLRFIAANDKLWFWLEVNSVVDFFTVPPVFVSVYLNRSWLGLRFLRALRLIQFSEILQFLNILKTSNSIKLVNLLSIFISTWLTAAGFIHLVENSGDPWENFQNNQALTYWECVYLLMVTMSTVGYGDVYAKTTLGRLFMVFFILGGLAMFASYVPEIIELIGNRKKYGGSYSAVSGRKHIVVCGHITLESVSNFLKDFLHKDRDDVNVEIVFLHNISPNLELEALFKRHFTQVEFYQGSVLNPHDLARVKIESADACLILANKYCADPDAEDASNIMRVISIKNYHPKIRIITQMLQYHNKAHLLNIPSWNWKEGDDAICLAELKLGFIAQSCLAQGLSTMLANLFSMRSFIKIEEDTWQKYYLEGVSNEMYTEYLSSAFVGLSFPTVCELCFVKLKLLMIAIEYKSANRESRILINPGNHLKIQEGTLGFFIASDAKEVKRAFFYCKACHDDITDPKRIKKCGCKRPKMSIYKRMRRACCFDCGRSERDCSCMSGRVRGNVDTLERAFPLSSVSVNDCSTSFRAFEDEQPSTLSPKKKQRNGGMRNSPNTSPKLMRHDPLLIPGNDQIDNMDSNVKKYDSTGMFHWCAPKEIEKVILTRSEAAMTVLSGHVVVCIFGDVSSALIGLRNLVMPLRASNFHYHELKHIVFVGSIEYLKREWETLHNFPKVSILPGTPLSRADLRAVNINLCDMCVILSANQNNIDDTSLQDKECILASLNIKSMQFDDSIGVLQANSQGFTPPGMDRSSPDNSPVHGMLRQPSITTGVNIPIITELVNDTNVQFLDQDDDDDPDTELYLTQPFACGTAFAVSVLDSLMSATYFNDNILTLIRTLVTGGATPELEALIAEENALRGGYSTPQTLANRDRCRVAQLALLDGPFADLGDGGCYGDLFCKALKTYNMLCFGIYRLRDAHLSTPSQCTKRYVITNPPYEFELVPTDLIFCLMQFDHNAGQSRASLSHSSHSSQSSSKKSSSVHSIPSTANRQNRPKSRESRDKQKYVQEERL
Protocol: In this example the BK channel opening activity of a 1,5-diarylsubstituted 1,2,3-triazole derivative for use according to the invention, i.e. CMPD-2 (herein designated Compound A), is determined using BK channels heterologously expressed in Xenopus laevis oocytes.
The electrical current through the BK channel is measured conventional two-electrode voltage clamp. BK current is activated by repeated step protocols. In brief, this protocol goes from a resting membrane potential of −40 mV lasting for 5 s to a depolarised step to +30 mV lasting for 1 s. The protocol was repeated continuously.
Having reached a stable current level, Compound A (30 μM), was added.

melting point [°C] | BK current activated by depolarisation (BK channel opening activity) [1] | SMILES
230.5 to 232.1 |  | FC(F)(F)c1cccc(-c2cnnn2-c2cc(Cl)ccc2-c2nnn[nH]2)c1 [CMPD-3, 5-{4-Chloro-2-[5-(3-trifluoromethyl-phenyl)-[1,2,3]triazol-1-yl]-phenyl}-1H-tetrazole]
181.1 to 183.6 |  | FC(F)(F)c1cccc(-c2cnnn2-c2cc(Cl)ccc2OCc2nnn[nH]2)c1 [CMPD-6, 5-{4-Chloro-2-[5-(3-trifluoromethyl-phenyl)-[1,2,3]triazol-1-yl]-phenoxymethyl}-1H-tetrazole]
 | marked increase | FC(F)(F)c1ccc(-c2ccc(-n3nncc3-c3cc(C(F)(F)F)cc(C(F)(F)F)c3)c(-c3nnn[nH]3)c2)cc1 [Compound A, 5-{4-[5-(3,5-Bis-trifluoromethyl-phenyl)-[1,2,3]triazol-1-yl]-4′-trifluoromethyl-biphenyl-3-yl}-1H-tetrazole]
